Experiments:
Format in all cases: in vivo, mouse
Settings in all cases: 30 mg/kg IP daily, vs control
GLUT4 = GLUT4 gene expression in adipose tissue of LDLR−/− mice (qPCR)
Procedure: (§1) FIGS. 30A-30E are graphs showing expression of various genes in tissues of HFD-fed LDLR−/− mice following 6 weeks of daily IP administration of MD20 (30 mg/kg) or a vehicle control. Mice were fasted for 5 hours at the conclusion of the experiment, liver and white adipose tissue (“WAT”) samples were collected, and gene expression was measured by qRT-PCR. Expression of glucose transporter 4 (GLUT4; FIG. 30A) and stearoyl-CoA-desaturase 1 (SCD1; FIG. 30B) was measured in adipose tissue, and expression of Glucose-6-phosphatase (G6P; FIG. 30C), Activating Transcription Factor 4 (ATF4; FIG. 30D), and 3-hydroxy-3-methylglutaryl (HMGCS; FIG. 30E) was measured in liver tissue. Data represent mean±SEM; statistical differences were determined using two tailed student's t-test.
(§2) Gene expression analyses: Livers and adipose tissue were collected from 5 h-fasted animals and snap-frozen in liquid nitrogen. RNA was isolated from frozen liver tissue using TRIzole (Sigma, UK) and cDNA was synthesized from 1 μg RNA using bioscript cDNA synthesis kit (Bioline, UK), oligo (dT) 18 (SEQ ID NO: 170), and random hexamer primers.
(§3) Genes of interest were amplified by quantitative PCR (qPCR) using gene-specific primers and GoTaq qPCR master mix (Promega, Madison, WI, USA).

SCD1 = SCD1 gene expression in adipose tissue of LDLR−/− mice (qPCR)
Procedure: as §1, §2, §3

G6Pase = G6Pase gene expression in liver of LDLR−/− mice (qPCR)
Procedure: as §1, §2, §3

## Ac-PRPPKR-NH2 [MD20, Ac-PRPPKR-NH2]
GLUT4
  GLUT4 gene expression in adipose tissue: increased
SCD1
  SCD1 expression in adipose tissue: increased
G6Pase
  G6Pase gene expression in liver: decreased

— patent US20260365696A1, “INHIBITORS OF PTP1B / NCK1 INTERACTION AND METHODS OF MAKING AND USING SAME” (Radella Pharmaceuticals LLC, priority 2023, published 2026)
